This is an account of results in US20140023611A1 (priority 2010, published 2014).

Where only a bound is given, the exact number is not on record here.

Data set [1] concerns the target T1, rat NaP2b (SLC34A2) (Rattus norvegicus, UniProt Q9JJ09).
T1 construct: host or cells: HEK293
T1 sequence (Q9JJ09 1-695): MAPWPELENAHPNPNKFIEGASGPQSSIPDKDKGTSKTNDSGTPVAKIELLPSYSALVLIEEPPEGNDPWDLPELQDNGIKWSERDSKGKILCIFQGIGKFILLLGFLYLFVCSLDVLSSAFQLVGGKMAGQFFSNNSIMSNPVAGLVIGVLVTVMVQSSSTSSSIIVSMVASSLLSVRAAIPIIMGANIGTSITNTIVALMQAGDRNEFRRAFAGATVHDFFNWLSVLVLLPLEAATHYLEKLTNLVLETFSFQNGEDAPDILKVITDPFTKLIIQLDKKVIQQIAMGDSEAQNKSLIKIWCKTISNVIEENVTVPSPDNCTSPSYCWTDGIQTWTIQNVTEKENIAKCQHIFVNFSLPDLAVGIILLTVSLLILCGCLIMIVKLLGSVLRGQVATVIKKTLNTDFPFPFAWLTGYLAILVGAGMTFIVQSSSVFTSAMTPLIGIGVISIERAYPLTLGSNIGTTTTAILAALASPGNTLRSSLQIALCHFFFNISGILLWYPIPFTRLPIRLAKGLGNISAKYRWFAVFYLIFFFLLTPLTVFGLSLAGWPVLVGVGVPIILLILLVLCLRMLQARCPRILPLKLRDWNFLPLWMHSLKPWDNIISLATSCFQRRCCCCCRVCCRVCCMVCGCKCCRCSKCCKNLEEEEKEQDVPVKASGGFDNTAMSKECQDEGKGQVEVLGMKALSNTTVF
In words: Inhibition of NaP2b-mediated Pi (33P) uptake in transfected HEK293 cells, rat NaP2b. The class given is cell-based. The conditions noted are these: 33P Pi uptake, 0.1 mM phosphate, value given as pIC50 range. Put shortly:
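HEK293 cells were transiently transfected with NaP2b cDNA using Lipofectamine and grown near confluence. Compounds were tested at twelve concentrations from 0.1 nM to 30 uM in duplicate, and 33P-phosphate uptake was counted by scintillation after lysis. Results are expressed as pIC50.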

A short description of data set [2]: Stability of compounds in simulated gastric fluid (SGF). The class given is in vitro ADME. The note with it: simulated gastric fluid (3 mg/mL pepsin), incubation time 6 hr, relative to t=0. On the procedure:
(§1) Test compounds were incubated at […] in simulated gastric fluid (SGF; standard USP solution with 3 mg/mL pepsin) or simulated intestinal fluid (SIF; standard USP solution with 3 mg/mL pancreatin) for 3 hr or 6 hr. HPLC-UV or HPLC-MS were used to determine test compound levels using peak area %. Results (Table 14) were reported as the percentage of test compound remaining after incubation in a given condition relative to test compound present at t=0 in the same condition.

Data set [3] can be described thus: Stability of compounds in simulated intestinal fluid (SIF). The format is in vitro ADME. The conditions noted are these: simulated intestinal fluid (3 mg/mL pancreatin), incubation time 6 hr, relative to t=0. On the procedure:
as §1

A short description of data set [4]: Determination of compound Cmax and AUC after oral gavage (plasma LC-MS/MS). The format is in vivo, Sprague-Dawley rats. The note with it: Sprague-Dawley, rat, plasma, po, Structure (I) examples, Table 15, actual oral dose 3-15 mg/kg, plasma 0.5-4 h. Put shortly: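 Sprague-Dawley rats dosed by oral gavage at nominal 2.5 or 10 mg/kg; blood drawn at 0.5, 1, 2 and 4 h into K2EDTA. Plasma protein-precipitated with acetonitrile plus internal standard and analysed by LC-MS/MS against a plasma standard curve to derive Cmax and AUC.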

For orientation: IC50 means the concentration that gives 50% inhibition. For orientation: AUC means the area under the concentration-time curve, a measure of exposure. As a reminder, the Cmax is the maximum level reached in the sampled fluid or tissue. `CN(CCN1CCC[C@H]1C(=O)NCCOCCOCCOCCC(=O)O)C(=O)c1cccc(C(=O)Nc2ccc(N3CCCCC3)cc2-c2cc(C(=O)N[C@H]3CCCc4ccccc43)ccn2)c1` [Example 193, 1-((S)-1-(2-(N-methyl-3-((4-(piperidin-1-yl)-2-(4-(((S)-1,2,3,4-tetrahydronaphthalen-1-yl)carbamoyl)pyridin-2-yl)phenyl)carbamoyl)benzamido)ethyl)pyrrolidin-2-yl)-1-oxo-5,8,11-trioxa-2-azatetradecan-14-oic acid]: in data set [1], the IC50 is 10 to 31.6 µM. Also, the “% remaining, SGF” value in data set [2] is greater than 80%. The “% remaining, SIF” value in data set [3] was greater than 80%. For the same compound, in data set [4], the AUC is less than 30 ng·h/mL and the Cmax was less than 10 ng/mL.
Turning to `COCCN(C)C(=O)N1CCN(CCN(C)Cc2cccc(C(=O)Nc3ccc(N4CCCCC4)cc3-c3cc(C(=O)NCc4cccc(C(F)(F)F)c4)ccn3)c2)CC1` [Example 209, N-(2-methoxyethyl)-N-methyl-4-(2-(methyl(3-(4-(piperidin-1-yl)-2-(4-(3-(trifluoromethyl)benzylcarbamoyl)pyridin-2-yl)phenylcarbamoyl)benzyl)amino)ethyl)piperazine-1-carboxamide], the IC50 in data set [1] is 1 to 7.94 µM. In addition, in data set [2], the “% remaining, SGF” value is given as greater than 80%. Besides, the “% remaining, SIF” value in data set [3] is 60-80%. In data set [4], this compound showed an AUC of less than 30 ng·h/mL and a Cmax of less than 30 ng/mL.
Consider `COCCN(C)C(=O)N1CCN(CCN(C)Cc2cccc(C(=O)Nc3ccc(N4CCCCC4)cc3-c3cc(C(=O)NCc4cccc(C(F)(F)F)c4)ccn3)n2)CC1` [Example 210, N-(2-methoxyethyl)-N-methyl-4-(2-(methyl((6-(4-(piperidin-1-yl)-2-(4-(3-(trifluoromethyl)benzylcarbamoyl)pyridin-2-yl)phenylcarbamoyl)pyridin-2-yl)methyl)amino)ethyl)piperazine-1-carboxamide], for which the concentration for half-maximal inhibition (IC50) in data set [1] was 10 to 31.6 µM. Besides, in data set [2], the “% remaining, SGF” value was greater than 80%. Further, the “% remaining, SIF” value in data set [3] was greater than 80%. In data set [4], this compound showed an AUC of less than 30 ng·h/mL and a Cmax of less than 10 ng/mL.
In data set [1], `CN(CCOCCOCCOCCC(=O)O)C(=O)c1cccc(C(=O)Nc2ccc(Cl)cc2-c2cc(C(=O)NCc3cccc(C(F)(F)F)c3)ccn2)c1` [Example 238, 3-{2-[2-(2-{1-[3-({4-chloro-2-[4-({[3-(trifluoromethyl)phenyl]methyl}carbamoyl)pyridin-2-yl]phenyl}carbamoyl)phenyl]-N-methylformamido}ethoxy)ethoxy]ethoxy}propanoic acid] had an IC50 of 10 to 31.6 µM. The “% remaining, SGF” value in data set [2] is on record as greater than 80%. In addition, the “% remaining, SIF” value in data set [3] was greater than 80%. In data set [4], this compound showed an AUC of less than 10 ng·h/mL and a Cmax of less than 10 ng/mL.
In data set [1], `CN(CCN1CCCC[C@H]1C(=O)N(C)CCOCCOCCOCCC(=O)OC(C)(C)C)C(=O)c1cccc(C(=O)Nc2ccc(N3CCCCC3)cc2-c2cc(C(=O)N[C@H]3CCCc4ccccc43)ccn2)c1` [Example 240, tert-butyl 2-methyl-1-((S)-1-(2-(N-methyl-3-(4-(piperidin-1-yl)-2-(4-((S)-1,2,3,4-tetrahydronaphthalen-1-ylcarbamoyl)pyridin-2-yl)phenylcarbamoyl)benzamido)ethyl)piperidin-2-yl)-1-oxo-5,8,11-trioxa-2-azatetradecan-14-oate] gave a concentration for half-maximal inhibition (IC50) of 1 to 7.94 µM. Besides, the “% remaining, SGF” value in data set [2] was greater than 80%. The “% remaining, SIF” value in data set [3] is given as greater than 80%. In data set [4], the AUC is less than 10 ng·h/mL and the peak concentration (Cmax) is less than 10 ng/mL.
The compound `CN(CC(=O)N1CCN(CCOCCO)CC1)C(=O)c1cccc(C(=O)Nc2ccc(N3CCCCC3)cc2-c2cc(C(=O)N[C@H]3CCCc4ccccc43)ccn2)c1` [Example 246, (S)—N1-(2-(4-(2-(2-hydroxyethoxy)ethyl)piperazin-1-yl)-2-oxoethyl)-N1-methyl-N3-(4-(piperidin-1-yl)-2-(4-(1,2,3,4-tetrahydronaphthalen-1-ylcarbamoyl)pyridin-2-yl)phenyl)isophthalamide] showed an IC50 in data set [1] of 1 to 7.94 µM. For the same compound, the “% remaining, SGF” value in data set [2] is greater than 80%. Besides, the “% remaining, SIF” value in data set [3] is listed as greater than 80%. In data set [4], this compound had an AUC of less than 10 ng·h/mL and a Cmax of less than 10 ng/mL.
